Experimental data: patent publication US20240342128A1, “IMMUNE MEMORY INDUCTION BY PLATINUM BASED COMPOUNDS” (AKAMARA THERAPEUTICS, INC., priority 2016, published 2024)

Key:
4T1 cells [1] = test: immune memory study: re-implantation of 4T1 cells; type: in vivo, Balb/c mice
Experimental: 4T1 cells were subcutaneously implanted in Balb/c mice to generate tumors. When tumors reached an average volume of 100 mm^3, they were treated with Compound 1. Two groups of Balb/c mice (non-tumor bearing) were either treated with Compound 1 or saline (designated Group 1 and 2 respectively; FIG. 3A).
Immune memory cells are poised to rapidly expand and induce effector functions upon recurrence, while existing in a functionally quiescent state. In order to check this hypothesis, we examined immune memory in Compound 1 treated tumors. […] The results also rule out the effect of any residual drug inducing tumor memory in non-tumor bearing animals.

splenic B cells [2] = test: relative mRNA expression of B cell differentiation and TLR activation genes in isolated splenic B cells; type: in vivo; conditions: B cells from tumor bearing mice treated (Group 3), normalized to Group 1, FIG. 6B
Experimental: Mice splenic B cells were isolated from Group 1 and Group 3 mice, described in Example 3.
Spleen was harvested from mice (n=3) and minced into small pieces in RPMI-1640 basal media. The pieces were placed on top of a 40 mesh membrane and crushed with the back of a syringe and the single cell suspension was collected onto a 50 ml tube. The single cell suspension was washed twice with PBS to remove debris by centrifuging at 2000 rpm. Splenocytes were counted using haemocytometer and 100 million splenocytes were resuspended in 1 ml of isolation buffer (2% FBS, […] in DPBS) and transferred to a 5 ml polysterene tube. The B cells were isolated from splenocytes using the EasySep Stem Cell B cell isolation kit as per manufacturers protocol. Ten million B cells were used for RNA isolation, followed by relative mRNA expression levels of genes involved in B cell differentiation and TLR activation were evaluated.

4T1 tumors [3] = test: relative mRNA expression (qRT-PCR) of immune genes in harvested 4T1 tumors; type: in vivo; conditions: 4T1 tumors in Balb/c mice, one cycle of treatment, FIG. 1A
Experimental: 4T1 cells were subcutaneously implanted in Balb/c mice to generate tumors. When tumors reached an average volume of 100 mm^3, they were treated with either Compound 1 or Oxaliplatin. After one cycle of treatment, following regression, tumors were harvested and a portion of the tumor from each group was used for total RNA isolation. The tumor infiltrating immune cells were evaluated for relative mRNA expression levels of immune activating and immune suppressive genes (Denkert et al., Clin Oncol. 2015; 33(9):983-91).

4T1 cells [4] = test: ds-RNA detection by propidium iodide staining after DNase/RNase treatment; type: cell-based
Experimental: 4T1 cells were grown on a coverslip in RPMI media to 70-80% confluency. The cells were treated with Compound 1 or Oxaliplatin. Detection of ds-RNA was a modification of protocol described by Kantarjian et al. (Kantarjian et al., Blood. 1985 July; 66(1):39-46). Following treatment, the coverslips were washed in phosphate-buffered saline (PBS) and fixed in 70% ice-cold ethanol. Cells were then washed with saline and treated with 1 mg/mL of DNase in 0.25 mol/L sucrose, 5 mmol/L MgCl2, and 20 mmol/L Tris-HCL (pH 6.5) at 37° C. for 60 min. In addition, another set of cells, subjected to Compound 1 or Oxaliplatin treatment were treated with RNase at a concentration of 5 mg/mL at 37° C. for 60 minutes. After another wash in PBS, the coverslips were exposed to propidium iodide at a final concentration of 50 μg/ml, diluted in a solution containing 10 mmol/L Tris-HCl (pH 7.4) and 5 mmol/L MgCl2. Stained cells were kept at 4° C. prior to microscopic analysis using a NIKON epi-fluorescence microscope using excitation wavelengths of 480 nm and emission wavelengths of 590 nm.

4T1 tumors [5] = test: tumor regression in immunocompetent versus immune-deficient mice strains; type: in vivo, mice (Balb/c, Jh−/−, SCID); conditions: FIG. 4
Text: To understand the role of immune components in tumor regression following treatment with Compound 1, tumor regression was studied in three different mice strains. These included immunocompetent mice (Balb/c); B cell-deficient mice (designated Jh^−/−) and mice lacking functional B cells and T cells (SCID). 4T1 cells were subcutaneously implanted in the three strains mentioned and when tumors reached an average volume of 100 mm^3, they were divided into two groups. One group was kept as control and the other treated with Compound 1 and the tumor volume in all the animals were recorded.

LLC tumors = test: immunohistochemical analysis of tumor sections, murine NSCLC tumor model; type: in vivo; conditions: LLC tumors in C57/BL6 mice, two cycles of treatment, FFPE sections, FIG. 1B
Experimental: Murine NSCLC tumor model was generated by subcutaneously implanting LLC cells in C57/BL6 mice. Treatment with either Compound 1 or Oxaliplatin was initiated when average tumor volume reached 100 mm^3. Following two cycles of treatment, tumors were harvested and a portion fixed in formalin. FFPE sections were generated from the fixed tumors and immunohistochemical analysis of tumor sections was carried out for both T and B-cells.

T cell receptor (TCR) = test: activation of TCR; conditions: in comparison to Oxaliplatin, FIG. 2A
splenic B cells [6] = test: splenic B cells cultured with treatment conditioned media (TCM) from treated 4T1 cells, relative mRNA expression; type: cell-based, mice
Experimental: 4T1 cells were seeded in cell culture dishes in RPMI-1640 media containing 10% FBS. The cells were treated with Oxaliplatin and Compound 1 when they reached 60% confluence. Following a transient treatment of 6 hours, the media was removed and supplemented with fresh culture media. Cells were incubated at 37° C. for 24 hours. After 24 hours, the treatment conditioned media (TCM) was collected from each treatment and divided into two parts. One part was passed through 0.1 micron PES filters to obtain tumor conditioned media free of cell debris, with nucleic acids intact; while the other was passed through 0.1 micron Nylon membrane filters, where the nucleic acids would stick and get removed. The filtration process through Nylon membrane was repeated twice to remove all nucleic acids from the TCM. The harvested TCMs were used immediately for conditioning of B cells, isolated from naïve mice splenocytes using the EasySep Stem Cell B cell isolation kit as per manufacturers protocol. The B cells were incubated with conditioned media and harvested after 24 hours of incubation. RNA was isolated from the B cells and used for relative mRNA expression level evaluation of genes involved in B cell differentiation and TLR activation.

CD8+ T cells in tumors = test: infiltration of cytotoxic CD8+ T-cells in treated tumors; type: in vivo; conditions: FIG. 2B

Compound: CC(C)CCC[C@@H](C)[C@H]1CCC2C3CC=C4C[C@@H](OCCN(CC(=O)[O-])CC(=O)[O][Pt+]5[NH][C@@H]6CCCC[C@H]6[NH]5)CC[C@]4(C)C3CC[C@@]21C (stereo partly drawn) [Compound 1]
- tumor growth after implantation of 4T1 cells in treated non-tumor bearing mice (4T1 cells [1]; Group 1: non-tumor bearing Balb/c mice treated, similar to saline treated mice (Group 2), FIG. 3C): led to the growth of tumors
- tumor growth upon re-implantation of cancer cells (immune memory) (4T1 cells [1]; Group 3: animals that had previously undergone tumor regression with treatment, FIG. 3B): no tumor growth was observed upon re-implantation of cancer cells
- IGKC mRNA levels in splenic B cells (splenic B cells [2]): significant increase in IGKC mRNA levels
- expression of TLRs and CD80 in splenic B cells (splenic B cells [2]): elevated expression of TLRs and CD80
- IGKC mRNA levels in tumors (4T1 tumors [3]): significant increase in IGKC mRNA levels
- relative fluorescent intensity per field (dsRNA amount) (4T1 cells [4]; DNase treated samples, propidium iodide stain, FIG. 5C): enhancement of relative fluorescent intensity per field
- stability of RNA adducts (4T1 cells [4]; compared to Oxaliplatin): more stable RNA adducts
- tumor regression in mice lacking immune cells (4T1 tumors [5]; 4T1 tumors in B cell-deficient (Jh−/−) and SCID mice, growth similar to control mice): Tumors do not regress
- tumor regression in immunocompetent mice (4T1 tumors [5]; 4T1 tumors in Balb/c mice): causes tumor regression only in immunocompetent mice
- B220 level by immunohistochemistry (LLC tumors): elevated levels
- IGKC level by immunohistochemistry (LLC tumors): elevated levels
- activation of TCR (T cell receptor (TCR)): substantial activation of TCR
- B cell differentiation markers and TLR activation markers (relative mRNA) (splenic B cells [6]; TCM with nucleic acids intact (PES filter), 24 hours incubation, FIG. 7B): substantially increased
- relative level of B cell differentiation and TLR activation markers, nucleic acid depleted TCM (splenic B cells [6]; nucleic acids removed from TCM (Nylon membrane filter), FIG. 7C): substantially reduced
- infiltration of cytotoxic T cells (CD8+ T cells) in tumors (CD8+ T cells in tumors): infiltration of cytotoxic T cells
